We go through 23 molecules from US9168259B2 (GRÜNENTHAL GMBH, priority 2010, dated 2015).

For this test, the target named is T1, KCNQ2/3 channels (Homo sapiens, UniProt O43525+O43526).
T1 construct: expressed in transfected cells
Put plainly: Fluorescence assay using a voltage sensitive dye (fluorimetry). Type of test: cell-based. To be noted: for EC50: IC50 where % efficacy is negative, read-out: Fluorimetry EC50/IC50. The source says:
Method I. Fluorescence Assay Using a Voltage Sensitive Dye (Fluorimetry)
These voltage-sensitive dyes are fluorescent dyes and, therefore, are forming the link between cell potential influenced by KCNQ modulation and fluorescence intensity. A KCNQ agonist leads to an opening of the channel, potassium and dye efflux, a following hyperpolarization and a reduction of the inner fluorescence intensity in a kinetic protocol. If applying an ion jump by KCl depolarization, KCNQ agonists increase the ΔF/F value. An antagonist performs vice versa, respectively.
Therefore, ‘fluorimetry EC50’ is a measure for the compound potency. The compound efficacy is mirrored by ‘fluorimetry % efficacy’ (‘% Efficacy’) and refers to the maximum response achievable by the test compound, i.e. the plateau effect. This drug's plateau effect is related to the plateau effect, which can be achieved by applying a saturated concentration of a reference compound, e.g. Retigabine (50 μM), in independent wells of the same experimental plate or series.
[…] CHO-K1 cells expressing KCNQ2/3 channels are cultivated adherently at 37° C., 5% CO2 and 95% humidity in cell culture bottles (e.g. 80 cm^2 TC flasks, Nunc) with DMEM-high glucose (Sigma Aldrich, D7777) including 10% FCS (PAN Biotech, e.g. 3302-P270521) or alternatively MEM Alpha Medium (1×, liquid, Invitrogen, #22571), 10% fetal calf serum (FCS) (Invitrogen, #10270-106, heat-inactivated) and the necessary selection antibiotics.
The cell number is determined using a CASY™ cell counter (TCC, Schärfe System). Depending on the optimal density for each individual cell line, 20,000-30,000 cells/well/100 μl are seeded onto 96-well Corning™ CellBIND™ assay plates (Flat Clear Bottom Black Polystyrene Microplates, #3340). Freshly seeded cells are then left to settle for one hour at room temperature, followed by incubation for 24 hours at 37° C., 5% CO2 and 95% humidity.
The voltage-sensitive fluorescent dye from the Membrane Potential Assay Kit (Red™ Bulk format part R8123 for FLIPR, MDS Analytical Technologies™) is prepared by dissolving the contents of one vessel Membrane Potential Assay Kit Red Component A in 200 ml of extracellular buffer (ES buffer, 120 mM NaCl, 1 mM KCl, 10 mM HEPES, 2 mM CaCl2, 2 mM MgCl2, 10 mM glucose; pH 7.4). After removal of the nutrient medium, the cells are washed once with 200 μl of ES buffer, then loaded for 45 min at room temperature in 100 μl of dye solution in the dark.
Fluorescence measurements are carried out in a BMG Labtech FLUOstar™, BMG Labtech NOVOstar™ or BMG Labtech POLARstar™ instrument (525 nm excitation, 560 nm emission, Bottom Read mode). After incubation with the dye, 50 μl of the test substances in the desired concentrations, or 50 μl of ES buffer for control purposes, are applied to the wells of the assay plate and incubated for 30 min at room temperature while being shielded from light. The fluorescence intensity of the dye is then measured for 5 min and the fluorescence value F1 of each well is thus determined at a given, constant time. 15 μl of a KCl solution are then added to each well (final concentration of potassium ions 92 mM). The change in fluorescence intensity is subsequently monitored until all the relevant values have been obtained (mainly 5-30 min). At a given time post KCl application, a fluorescence value F2 is determined, in this case at the time of the fluorescence peak.
For calculation, the fluorescence intensity F2 is corrected for the fluorescence intensity F1, and the activity (ΔF/F) of the target compound on the potassium channel is determined as follows:
In order to determine whether a substance has agonistic activity,
[formula] can be related to
[formula] of control wells.
[formula] is determined by adding to the well only the buffer solution instead of the test substance, determining the value F1K of the fluorescence intensity, adding the potassium ions as described above, and measuring a value F2K of the fluorescence intensity.

Where [1] appears, read: CHO-K1, plateau effect relative to saturated retigabine (50 μM) = 100%, CHO-K1 cells expressing KCNQ2/3, negative values = antagonistic, read-out: Fluorimetry % efficacy (retigabine = 100%).
Setting [2] is: CHO-K1 cells expressing KCNQ2/3.

Molecules are shown by their SMILES. Like-named read-outs stand apart in the source and are kept apart here.

T1 sequence (O43526 whole entry): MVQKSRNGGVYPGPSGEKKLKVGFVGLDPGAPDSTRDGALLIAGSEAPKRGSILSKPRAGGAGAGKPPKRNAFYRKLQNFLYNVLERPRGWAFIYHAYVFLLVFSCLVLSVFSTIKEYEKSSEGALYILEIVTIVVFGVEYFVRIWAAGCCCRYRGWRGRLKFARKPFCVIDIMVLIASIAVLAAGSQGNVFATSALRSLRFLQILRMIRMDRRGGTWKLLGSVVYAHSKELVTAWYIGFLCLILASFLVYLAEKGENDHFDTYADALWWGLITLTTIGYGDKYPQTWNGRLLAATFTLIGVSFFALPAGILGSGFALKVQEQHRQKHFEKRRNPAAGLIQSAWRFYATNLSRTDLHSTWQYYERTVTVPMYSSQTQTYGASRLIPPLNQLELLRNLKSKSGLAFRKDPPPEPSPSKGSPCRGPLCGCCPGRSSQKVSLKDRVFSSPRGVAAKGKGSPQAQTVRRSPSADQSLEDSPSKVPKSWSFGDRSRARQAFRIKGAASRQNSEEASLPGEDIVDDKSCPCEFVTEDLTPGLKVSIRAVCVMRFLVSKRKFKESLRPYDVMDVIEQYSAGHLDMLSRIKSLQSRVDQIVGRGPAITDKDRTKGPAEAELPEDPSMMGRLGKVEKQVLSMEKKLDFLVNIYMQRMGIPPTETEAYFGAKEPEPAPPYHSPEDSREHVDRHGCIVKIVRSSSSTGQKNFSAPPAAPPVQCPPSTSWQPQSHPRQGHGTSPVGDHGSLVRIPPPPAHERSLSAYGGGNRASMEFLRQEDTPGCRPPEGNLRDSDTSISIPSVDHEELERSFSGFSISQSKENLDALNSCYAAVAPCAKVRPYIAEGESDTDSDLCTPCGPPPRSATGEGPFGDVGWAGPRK
T1 sequence (O43525 whole entry): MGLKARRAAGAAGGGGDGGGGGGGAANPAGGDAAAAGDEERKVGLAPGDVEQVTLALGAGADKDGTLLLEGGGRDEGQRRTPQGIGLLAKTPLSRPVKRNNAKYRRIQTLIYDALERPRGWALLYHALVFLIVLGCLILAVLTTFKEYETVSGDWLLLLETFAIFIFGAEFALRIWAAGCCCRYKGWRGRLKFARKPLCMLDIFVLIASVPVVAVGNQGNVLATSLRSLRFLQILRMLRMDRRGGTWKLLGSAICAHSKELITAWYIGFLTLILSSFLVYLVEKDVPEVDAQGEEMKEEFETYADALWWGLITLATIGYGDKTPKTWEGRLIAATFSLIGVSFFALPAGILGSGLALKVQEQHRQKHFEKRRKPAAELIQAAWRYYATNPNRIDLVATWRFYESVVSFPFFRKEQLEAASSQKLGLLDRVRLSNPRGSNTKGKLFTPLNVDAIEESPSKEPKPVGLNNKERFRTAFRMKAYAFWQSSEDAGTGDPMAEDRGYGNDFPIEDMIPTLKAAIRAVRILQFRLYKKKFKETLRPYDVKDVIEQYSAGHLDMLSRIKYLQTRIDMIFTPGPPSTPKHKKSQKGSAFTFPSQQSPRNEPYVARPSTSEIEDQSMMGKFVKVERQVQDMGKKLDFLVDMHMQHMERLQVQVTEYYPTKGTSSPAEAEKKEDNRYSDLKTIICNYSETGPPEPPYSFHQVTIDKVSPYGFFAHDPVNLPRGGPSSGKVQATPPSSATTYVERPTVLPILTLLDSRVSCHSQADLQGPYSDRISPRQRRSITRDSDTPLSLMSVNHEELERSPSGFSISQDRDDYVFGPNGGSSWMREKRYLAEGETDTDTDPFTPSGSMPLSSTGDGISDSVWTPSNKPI

With `CCSc1nc(N2CCOCC2)cc(C)c1C(=O)NCc1ccccc1` [Example 55, N-Benzyl-2-ethylsulfanyl-4-methyl-6-morpholin-4-yl-pyridine-3-carboxylic acid amide], the Emax under setting [1] turned out to be 162%. Moreover, the EC50 under setting [2] stood at 260 nM. The like results for `CCCSc1nc(N2CCOCC2)cc(C)c1C(=O)NCc1cccc(F)c1` [Example 56, N-[(3-Fluorophenyl)-methyl]-4-methyl-6-morpholin-4-yl-2-(propylsulfanyl)-pyridine-3-carboxylic acid amide] were, in that order, 167% and 77 nM. The like results for `CCCCSc1nc(N2CCOCC2)cc(C)c1C(=O)NCc1cccc(F)c1` [Example 57, 2-(Butylsulfanyl)-N-[(3-fluorophenyl)-methyl]-4-methyl-6-morpholin-4-yl-pyridine-3-carboxylic acid amide] were, in that order, 169% and 47 nM. For `CCSc1nc(N2CCOCC2)c(F)c(C)c1C(=O)NCc1cccc(F)c1` [Example 58, 2-Ethylsulfanyl-5-fluoro-N-[(3-fluorophenyl)-methyl]-4-methyl-6-morpholin-4-yl-pyridine-3-carboxylic acid amide] the same measures were 173% and 2290 nM. As to `CCSc1nc(N2CCOCC2)cc(C)c1C(=O)NCc1cccc(C(F)(F)F)c1` [Example 59, 2-Ethylsulfanyl-4-methyl-6-morpholin-4-yl-N-[[3-(trifluoromethyl)phenyl]methyl]-pyridine-3-carboxylic acid amide], the Emax under setting [1] came to 128%. Also, under setting [2], the EC50 amounted to 70 nM. For `CCSc1nc(N2CCOCC2)cc(C)c1C(=O)NCc1ccc(C(F)(F)F)cc1` [Example 60, 2-Ethylsulfanyl-4-methyl-6-morpholin-4-yl-N-[[4-(trifluoromethyl)-phenyl]methyl]-pyridine-3-carboxylic acid amide] the same measures were 128% and 126 nM. Consider `CCSc1nc(N(C)CC2CCOCC2)cc(C)c1C(=O)NCc1cccc(F)c1` [Example 61, 2-Ethylsulfanyl-N-[(3-fluorophenyl)-methyl]-4-methyl-6-[methyl-(tetrahydro-pyran-4-yl-methyl)-amino]-pyridine-3-carboxylic acid amide], for which the Emax under setting [1] worked out at 110%. Also, the EC50 under setting [2] is 528 nM.

Turning to `Cc1cc(N2CCOCC2)nc(SCC(C)C)c1C(=O)NCc1cccc(F)c1` [Example 62, N-[(3-Fluorophenyl)-methyl]-4-methyl-2-(2-methyl-propylsulfanyl)-6-morpholin-4-yl-pyridine-3-carboxylic acid amide], the Emax under setting [1] was 164%. The EC50 under setting [2] is 47 nM. For `COCCSc1nc(N2CCOCC2)cc(C)c1C(=O)NCc1cccc(F)c1` [Example 63, N-[(3-Fluorophenyl)-methyl]-2-(2-methoxy-ethylsulfanyl)-4-methyl-6-morpholin-4-yl-pyridine-3-carboxylic acid amide] the same measures were 157% and 585 nM. For `CCOc1nc(N2CCOCC2)cc(C)c1C(=O)NCc1ccc(F)cc1` [Example 64, 2-Ethoxy-N-[(4-fluorophenyl)-methyl]-4-methyl-6-morpholin-4-yl-pyridine-3-carboxylic acid amide] the same measures were 137% and 216 nM. For the molecule `Cc1cc(N2CCOCC2)nc(N(C)C)c1C(=O)NCc1cccc(F)c1` [Example 65, 2-Dimethylamino-N-[(3-fluorophenyl)-methyl]-4-methyl-6-morpholin-4-yl-pyridine-3-carboxylic acid amide], the Emax under setting [1] came to 238%. The EC50 under setting [2] stood at 1060 nM. For `CCSc1nc(N2CC(C)OC(C)C2)cc(C)c1C(=O)NCc1cccc(F)c1` (centres unmarked) [Example 66, 6-(2,6-Dimethyl-morpholin-4-yl)-2-ethylsulfanyl-N-[(3-fluorophenyl)-methyl]-4-methyl-pyridine-3-carboxylic acid amide] the same measures were 109% and 983 nM. The like results for `CCSc1nc(N2CCOCC2)cc(C)c1C(=O)NCCC1CCCCO1` (centres unmarked) [Example 68, 2-Ethylsulfanyl-4-methyl-6-morpholin-4-yl-N-(2-tetrahydro-pyran-2-yl-ethyl)-pyridine-3-carboxylic acid amide] were, in that order, 134% and 7370 nM. The like results for `CCSc1nc(N2CCOCC2)cc(C)c1C(=O)NCC1CCCCO1` (centres unmarked) [Example 69, 2-Ethylsulfanyl-4-methyl-6-morpholin-4-yl-N-(tetrahydro-pyran-2-yl-methyl)-pyridine-3-carboxylic acid amide] were, in that order, 160% and 4480 nM. On to `CCSc1nc(N2CCC(C)CC2)cc(C)c1C(=O)NCc1cccc(F)c1` [Example 70, 2-Ethylsulfanyl-N-[(3-fluorophenyl)-methyl]-4-methyl-6-(4-methyl-piperidin-1-yl)-pyridine-3-carboxylic acid amide], for which, under setting [1], the Emax was determined as 175%. For the same molecule, the EC50 under setting [2] amounted to 163 nM. In the case of `CCSc1nc(N2CCOCC2)cc(C)c1C(=O)NCc1ccccc1-c1ccc(F)cc1` [Example 71, 2-Ethylsulfanyl-N-[[2-(4-fluorophenyl)-phenyl]-methyl]-4-methyl-6-morpholin-4-yl-pyridine-3-carboxylic acid amide], the Emax under setting [1] is -102%. The EC50 under setting [2] is 275 nM. For `CCOC(=O)CN(C)c1cc(C)c(C(=O)NCc2cccc(F)c2)c(SCC)n1` [Example 72], the Emax (CHO-K1, read-out: Fluorimetry % efficacy (retigabine = 100%)) came to 93%. The EC50 under setting [2] was determined as 2080 nM. `CCSc1nc(N2CCN(C3CC3)CC2)cc(C)c1C(=O)NCc1cccc(F)c1` [Example 73, 6-(4-Cyclopropyl-piperazin-1-yl)-2-ethylsulfanyl-N-[(3-fluorophenyl)-methyl]-4-methyl-pyridine-3-carboxylic acid amide]: under setting [1], the Emax was determined as 67%. In addition, the EC50 under setting [2] was 3010 nM. The like results for `CCSc1nc(N2CCC(C)(C)CC2)cc(C)c1C(=O)NCc1cccc(F)c1` [Example 74, 6-(4,4-Dimethyl-piperidin-1-yl)-2-ethylsulfanyl-N-[(3-fluorophenyl)-methyl]-4-methyl-pyridine-3-carboxylic acid amide] were, in that order, 70% and 702 nM. For `CCSc1nc(N2CCOCC2)cc(C)c1C(=O)NCc1ccc(SC(F)(F)F)cc1` [Example 75, 2-Ethylsulfanyl-4-methyl-6-morpholin-4-yl-N-[[4-(trifluoromethylsulfanyl)-phenyl]-methyl]-pyridine-3-carboxylic acid amide] the same measures were 135% and 61 nM. The like results for `CCSc1nc(N2CCOCC2)cc(C)c1C(=O)NCC1CCCCC1` [Example 76, N-(Cyclohexyl-methyl)-2-ethylsulfanyl-4-methyl-6-morpholin-4-yl-pyridine-3-carboxylic acid amide] were, in that order, 179% and 91 nM. `CCSc1nc(N2CCOCC2)cc(C)c1C(=O)NCCOC` [Example 77, 2-Ethylsulfanyl-N-(2-methoxy-ethyl)-4-methyl-6-morpholin-4-yl-pyridine-3-carboxylic acid amide]: the Emax under setting [1] amounted to 40%. Consider `CCSc1nc(N2CCOCC2)cc(C)c1C(=O)NCCCOC` [Example 78, 2-Ethylsulfanyl-N-(3-methoxy-propyl)-4-methyl-6-morpholin-4-yl-pyridine-3-carboxylic acid amide], for which the Emax under setting [1] is 31%.
